In ChEMBL document CHEMBL3988442, “University of Dundee, Small-Polar-MMV Screening Library” (2021):

Molecular target: Lysine--tRNA ligase (Plasmodium falciparum (isolate 3D7), UniProt Q8IDJ8)
Test: Pf-KRS-1 (Lysyl-RNA Synthetase-1, KRS-1, cytosolic KRS) from Plasmodium falciparum. Inhibitor assay, 384 well plate, luminescence read.
Type: functional

Sequence of Lysine--tRNA ligase (Q8IDJ8 whole entry): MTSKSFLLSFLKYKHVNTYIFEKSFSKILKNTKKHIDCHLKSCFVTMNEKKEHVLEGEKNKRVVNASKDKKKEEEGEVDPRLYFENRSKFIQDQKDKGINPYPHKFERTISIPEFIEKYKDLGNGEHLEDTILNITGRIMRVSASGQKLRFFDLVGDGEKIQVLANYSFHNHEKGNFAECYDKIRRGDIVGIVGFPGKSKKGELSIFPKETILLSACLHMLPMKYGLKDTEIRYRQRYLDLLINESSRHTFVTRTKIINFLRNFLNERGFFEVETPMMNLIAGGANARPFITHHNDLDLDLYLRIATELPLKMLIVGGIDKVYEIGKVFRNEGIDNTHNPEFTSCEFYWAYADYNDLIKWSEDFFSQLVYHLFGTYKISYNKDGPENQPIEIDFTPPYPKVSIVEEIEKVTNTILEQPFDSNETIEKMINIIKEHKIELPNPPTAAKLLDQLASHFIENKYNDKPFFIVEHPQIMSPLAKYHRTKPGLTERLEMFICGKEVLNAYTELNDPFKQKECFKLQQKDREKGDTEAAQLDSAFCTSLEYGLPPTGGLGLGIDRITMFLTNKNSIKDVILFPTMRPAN

Compound | IC50 [µM]
Cc1ccc(O)c(CNCC(C)c2nc3ccccc3o2)n1 (stereo not given) | > 50.1
Cc1nnc(NCCC(=O)NCc2ccccc2)c(C#N)c1C | > 50.1
Cc1nnc(NCCC(=O)N(C)Cc2ccccc2)c(C#N)c1C | > 50.1
COCc1cc(N(CC(F)F)C2CC2)n2ncnc2n1 | > 50.1
CCN(Cc1cccc(F)c1)c1ccc2nnnn2n1 | > 50.1
C=C(C)Cn1ccc2cc(OC)c(F)cc2c1=O | > 50.1
Cc1cc(C(N)=O)ccc1NC(=O)c1nc(N2CCCC2)ncc1Cl | > 50.1
NS(=O)(=O)c1ccc(NC(=O)CSc2ccc3c(c2)CCC3)cc1 | > 50.1
CSc1cc2c(cc1NC(=O)NCC(C)(C)C(N)=O)OCCO2 | > 50.1
CC(=O)c1cnc(N(C)Cc2cc(C)cc(C)n2)nc1C | > 50.1
Cc1nc(C)c(C)c(N(C)CCCc2nccn2C)n1 | > 50.1
Cc1nc(N(C)C)ncc1C(=O)NCCc1csc(-c2cnccn2)n1 | > 50.1
CN1C[C@@H]2CC[C@H](CC1=O)N2C(=O)c1ccc(-c2ccccc2)[nH]c1=O | > 50.1
COC(=O)c1ccc2ccn(CC3COCCO3)c(=O)c2c1 (stereo not given) | > 50.1
COc1ccccc1N1CCC(N2CCOCC(CO)C2)CC1 (stereo not given) | > 50.1
Cc1ccc([C@@H]2CN(C(=O)c3cc(C)no3)C[C@H]2NC(=O)C2CC2)cc1 | > 50.1
c1ccc(SCCN2CCCC(Cn3ccnc3)C2)cc1 (stereo not given) | > 50.1
CCCc1ccc(CN2CCN(C(=O)CC(C)C)[C@@H]3CS(=O)(=O)C[C@@H]32)o1 | > 50.1
Cc1nc(CN2CCCC(CCc3ccccc3C(F)(F)F)C2)co1 (stereo not given) | > 50.1
Cc1nc(N(C)C)ncc1C(=O)NCCc1csc(-c2ccncc2)n1 | > 50.1
O=C(NCC1(O)CCCCC1)c1coc(COc2cccc(F)c2)n1 | > 50.1
Cc1nnc(NCCn2nc(C)c(Cl)c2C)o1 | > 50.1
O=C1COc2ccccc2N1CCCn1cnnn1 | > 50.1
CC(C)SCCn1ccc2[nH]c(=O)c(C#N)cc2c1=O | > 50.1
Cc1nc[nH]c1CN1CCn2nc(CN3Cc4ccccc4C3)cc2C1 | > 50.1
COc1ccc(/C=C/CN2C[C@H]3CC[C@@H]2CN(S(=O)(=O)N(C)C)C3)cc1 | > 50.1
Cc1cc2ccccc2n1CCC(=O)N1CCCCC1CCO (stereo not given) | > 50.1

Compound | IC50 [µM]
O=C(CC1COCCN1)N1CCC(N2CCc3ccccc3C2)CC1 (stereo not given) | > 50.1
CCCn1ccnc1CN1CCC(Oc2ccc(Cl)cc2)(C(=O)O)CC1 | > 50.1
CN(C)CCNC(=O)c1ccc(S(=O)(=O)N[C@@H]2CCNC2)cc1 | > 50.1
Cc1ccc(C)c2c(O)cc(CN[C@H]3CCCCNC3=O)nc12 | > 50.1
C/C=C(\C)CN1C[C@H](NC(=O)CCOC)[C@@H](c2ccc(C)o2)C1 | > 50.1
Cc1nc(CN2CCC3(CCCO3)CC2)c2ccccn12 | > 50.1
O=C(O)c1cc(-c2cc[nH]n2)cc(S(=O)(=O)N2CCCCCC2)c1 | > 50.1
COc1nccnc1N1CCC2(CC1)[C@H](O)C[C@@H]2OCCN(C)C | > 50.1
Cc1nc(CCC(=O)N2Cc3cnc(-c4ccccc4)nc3C2)n[nH]1 | > 50.1
O=C(O)c1cc(-c2ccncc2F)cc(S(=O)(=O)N2CCCCCC2)c1 | > 50.1
CCN1CCC(N2CCN(c3cc(-c4nc(C)no4)ccn3)CC2)CC1 | > 50.1
Cc1nc(N(C)CCCc2nccn2C)c2nc(C)oc2n1 | > 50.1
CCC[C@@H]1CN(Cc2nnc(-c3cccc(F)c3)o2)C[C@H]1NC(C)=O | > 50.1
COc1c(F)ccc(C(=O)N2CC[C@H](CO)[C@@H](O)C2)c1F | > 50.1
Cc1cc(C2CCC2)nc(N2CCC3(CC2)OCCCC3O)n1 (stereo not given) | > 50.1
CN1CC(c2ccccc2)CC12CCN(C(=O)c1cccnc1)CC2 (stereo not given) | > 50.1
NC(=O)c1ccc(CN2C(=O)C3(CCNCC3)Nc3ccccc32)cc1 | > 50.1
Cc1cc(C)c2c(NCC3(O)CCCCC3)ncnc2n1 | > 50.1
CC(=O)c1cc(CC(=O)N2CCN(S(=O)(=O)c3ccccc3)CC2)cs1 | > 50.1
CCCc1ccc(CN2CCN(C(=O)C(C)C)[C@@H]3CS(=O)(=O)C[C@@H]32)o1 | > 50.1
c1ccc(CCN2CCCC(Cn3ccnc3)C2)cc1 (stereo not given) | > 50.1
O=c1c(CN2CCOCC2)coc2ccc(Cl)cc12 | > 50.1
O=c1c(CN2CCCCC2)coc2ccc(Cl)cc12 | > 50.1
CCCc1ccc(CN2CCN(c3ncccn3)[C@@H]3CS(=O)(=O)C[C@@H]32)o1 | > 50.1
Cc1ccc(C2(O)CCN(Cc3nc(C)n4ccccc34)CC2)nc1 | > 50.1
COCCC(=O)N1CCC2(CC1)CC(c1ccccc1)CN(C1CC1)C2 (stereo not given) | > 50.1
CCN1CC(C(=O)N2CCN(CCn3cccc3)CC2)CC1=O (stereo not given) | > 50.1

Compound | IC50 [µM]
Cc1cc(C)c2nc(CNC3CCNC3=O)cc(O)c2c1 (stereo not given) | > 50.1
COc1cc(OC)nc(N2CCC3(CC2)OCCCC3O)n1 (stereo not given) | > 50.1
Cc1nc(N(C)CCCc2nccn2C)c2c(C)nn(C)c2n1 | > 50.1
Cc1cc(C)c2nc(CNC3CCCNC3=O)cc(O)c2c1 (stereo not given) | > 50.1
Cc1ccnc(NCCNC(=O)C2CC3(CCNCC3)CN2C)c1 (stereo not given) | > 50.1
COc1cc(C2CC(=O)Nc3c2nc2n3CCCC2)cc(OC)c1O (stereo not given) | > 50.1
Cc1cccc2c1nc(CCO)n2-c1ccc(N)nc1 | > 50.1
CC(C)C1CN(C(=O)c2cc(=O)[nH]c(=O)[nH]2)CCCN1CC1CC1 (stereo not given) | > 50.1
Cc1nnc(CN2CCCC(CCc3ccccc3C(F)(F)F)C2)o1 (stereo not given) | > 50.1
CSCCC(O)C(=O)N1CCCN(Cc2cccnc2)CC1 (stereo not given) | > 50.1
CSc1cccc(CN(C)C(=O)Nc2nc(C)n(C)n2)c1 | > 50.1
c1cc(-c2cn[nH]c2)ncc1CN1CCCCC1 | > 50.1
CCc1ccc(CN2CCN(C(=O)C(C)C)[C@@H]3CS(=O)(=O)C[C@@H]32)cc1 | > 50.1
COC(=O)c1ccc2ccn(CC3CCCCO3)c(=O)c2c1 (stereo not given) | 38.2
COc1c(F)cc(-c2cn(CCn3c(C)cc(C)nc3=O)nn2)cc1Cl | > 50.1
Cc1cc2ccccc2n1CCC(=O)N1CCC[C@H]1C(N)=O | > 50.1
O=C(C(O)c1ccccc1Cl)N1CCCN(Cc2cccnc2)CC1 (stereo not given) | > 50.1
CC(C)(C)c1cc(CN2CCOC(CCc3ccccc3)C2)n[nH]1 (stereo not given) | > 50.1
CN(C)CCO[C@H]1C[C@@H](O)C12CCN(c1nccc3ccccc13)CC2 | > 50.1
FC(F)(F)CCc1ccnc(NC2CCOC2)n1 (stereo not given) | > 50.1
c1csc(CN2CCCN(c3ncnc4[nH]ccc34)CC2)c1 | > 50.1
Cc1ccc(CS(=O)(=O)NCc2ccco2)cc1 | > 50.1
Cc1cc(C)c2nc(CN[C@H]3CCCNC3)cc(O)c2c1 | > 50.1
Cc1cnn(CCCN2C(=O)CCc3ccccc32)c1 | > 50.1
Cc1ccc(CN2CCN(Cc3ccncc3)[C@@H]3CS(=O)(=O)C[C@@H]32)cc1 | > 50.1
Cc1nc[nH]c1CN1CCn2nc(CN3CC[C@H](F)C3)cc2C1 | > 50.1
CN(C)CCn1ccnc1C1CCN(c2cc(N)nc(N)n2)CC1 | > 50.1

Compound | IC50 [µM]
CN(C)C(=O)N1C[C@@H]2CC[C@H](C1)N(C/C=C/c1ccc(F)cc1)C2 | > 50.1
NC(=O)c1csc(N2CCCC(c3n[nH]c(=O)n3-c3ccccc3)C2)n1 (stereo not given) | > 50.1
CSCCCN1CCCC(Cn2ccnc2)C1 (stereo not given) | > 50.1
Cc1nc(CN2CCCC(N(C)Cc3nc(CC(C)C)no3)C2)no1 (stereo not given) | > 50.1
CC(C)c1nccn1C1CCCN(C(=O)c2ccc3c(c2)COC3)C1 (stereo not given) | > 50.1
Cc1nc(CN(C)C2CCN(Cc3c(C)noc3C)C2)no1 (stereo not given) | > 50.1
Cc1csc(CNC(=O)N(C)Cc2ccc3c(c2)OCCO3)n1 | > 50.1
CCN(Cc1ccc2c(c1)OCO2)C(=O)NCc1nc(C)cs1 | > 50.1
Cc1csc(CNC(=O)NCc2ccc3c(c2)OCCO3)n1 | > 50.1
CCOc1ccc(CC(CNC(=O)c2ccoc2C)C(N)=O)cc1 (stereo not given) | > 50.1
CCOc1ccc(CC(CNC(=O)c2ccc(C)o2)C(N)=O)cc1 (stereo not given) | > 50.1
CC(C)c1nccn1C1CCCN(C(=O)c2cccc3[nH]ncc23)C1 (stereo not given) | > 50.1
CCc1nc(C2CCCN2Cc2noc(Cc3ccccc3)n2)no1 (stereo not given) | > 50.1
Cc1noc(C2CCCN(C(=O)c3cc(Cl)ccc3F)C2)n1 (stereo not given) | > 50.1
O=C(c1ccccn1)N1CCCN(Cc2nnc(C3CC3)o2)CC1 | > 50.1
CCc1nc(CN2CCOC(CN(CC)c3cccnn3)C2)cs1 (stereo not given) | > 50.1
O=C(NCCc1ccccn1)C1=NN(c2ccccc2)C(=O)CN1 | > 50.1
Cc1cc(CN(C)C(=O)c2cccc(N3CCCC3=O)c2)no1 | > 50.1
Cc1ccc(C2CCCN2Cc2nc3c(cnn3C)c(=O)[nH]2)cc1C (stereo not given) | > 50.1
Cn1ncc2c(=O)[nH]c(CN3CCCC3c3cccs3)nc21 (stereo not given) | > 50.1
CN(C)c1cc2c(nn1)CCN(C(=O)C1Cc3ccccc3S1)C2 (stereo not given) | > 50.1
Cc1cnn(CCNCC(O)COc2ccc(Cl)cc2)c1 (stereo not given) | > 50.1
Clc1snnc1CN1CCCCC1Cn1cncn1 (stereo not given) | > 50.1
CCc1c(C)[nH]c(C(C)(N)CC)nc1=O (stereo not given) | > 50.1
